Test system: bacteria
Assay: Antibacterial effect of antibiotics after γ-radiation
Conditions: γ-radiation with 25 kGray
Protocol: In the pharmaceuticals industry are sought γ-sterilized media for use in clean room areas and isolators. These clean room areas must be monitored for microbial contamination, and the product (that is, the microbiological nutrient medium) itself, with which this monitoring is carried out, should not introduce any contamination, but be sterile. The microbiological media are not completely sterile after autoclaving and filling into, for example, Petri dishes or other agar carriers, but have contamination rates in the order of magnitude of 0.1 to approx. 1%. Only as a result of an additional γ-sterilization (or β-sterilization) with high-energy radiation are killed the residual existing contaminations and a sterile product is obtained. However, many antibiotics are destroyed as a result of the γ-sterilization, so that afterward in selective media for yeasts and fungi whose selectivity is based on the addition of antibiotics, this selectivity no longer exists.

penicillin
antibacterial effect after γ-radiation: essentially reduced

O=C(N[C@H](CO)[C@H](O)c1ccc([N+](=O)[O-])cc1)C(Cl)Cl [chloramphenicol]
antibacterial effect after γ-radiation: completely destroyed
